Legend:
[1] = tested on: SW480 colon carcinoma cells; experiment: Cell viability assay (CellTiter-Glo) in SW480 colon carcinoma cells; format: cell-based, human; settings: Homo sapiens, 96 h, four days
Procedure: Representative compounds were screened using the assay procedure to assess the effect on cell viability as described below.
SW480 colon carcinoma cells were transduced with a lentiviral vector expressing luciferase with a human Sp5 promoter consisting of a sequence of eight TCF/LEF binding sites. SW480 cells stably expressing the Sp5-Luc reporter gene and a hygromycin resistance gene were selected by treatment with 150 μg/mL of hygromycin for 7 days. These stably transduced SW480 cells were expanded in cell culture and used for all further screening activities.
For the Cell Viability Assays, the cells were plated at 2,000 cells/well in 384-well plates with a DMEM medium containing 1% fetal bovine serum, and 1% Penicillin-Streptomycin and incubated for […] at 37° C. and 5% CO2. Eight replicates of DMSO-treated cells served as controls and cells treated with compound were performed in duplicate.
After incubation, 10 μL of CellTiter-Glo (Promega) was added to each well allowed to incubate for approximately 12 minutes. This reagent “results in cell lysis and generation of a luminescent signal proportional to the amount of ATP present. The amount of ATP is directly proportional to the number of cells present in culture, in agreement with previous reports. The CellTiter-Glo® Assay generates a “glow-type” luminescent signal, produced by the luciferase reaction (Promega.com)”.

[2] = molecular target: GSK3β kinase (Homo sapiens (Human), UniProt P49841); experiment: GSK3β kinase assay (Ser/Thr 09 peptide Z-lyte FRET); format: biochemical; settings: read-out: EC50 (method: IC50)
GSK3β kinase, sequence (P49841 whole entry): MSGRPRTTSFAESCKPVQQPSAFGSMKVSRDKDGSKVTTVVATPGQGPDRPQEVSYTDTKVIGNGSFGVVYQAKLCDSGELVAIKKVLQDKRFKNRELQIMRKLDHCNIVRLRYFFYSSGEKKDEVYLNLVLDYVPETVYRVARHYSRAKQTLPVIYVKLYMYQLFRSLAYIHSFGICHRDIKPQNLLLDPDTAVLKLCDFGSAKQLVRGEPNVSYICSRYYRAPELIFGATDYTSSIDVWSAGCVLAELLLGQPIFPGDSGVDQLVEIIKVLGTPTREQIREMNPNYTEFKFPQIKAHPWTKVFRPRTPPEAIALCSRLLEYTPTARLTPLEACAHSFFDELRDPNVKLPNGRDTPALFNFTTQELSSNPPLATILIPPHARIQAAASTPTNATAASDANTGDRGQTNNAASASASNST
Procedure: Representative compounds were screened using the assay procedure for GSK3β kinase activity as described below.
This is a non-radioactive assay using fluorescence resonance energy transfer (FRET) between coumarin and fluorescein to detect kinase activity which is represented as ratio of coumarin emission/fluorescein emission.
The mixture is allowed to incubate with the representative compounds for one hour at room temperature. All reactions were performed in duplicate. Unphosphorylated (“0% Control”) and phosphorylated (“100% control”) forms of Ser/Thr 18 serve as control reactions.
After incubation, diluted Development Buffer is added to the reaction and allowed to further incubate for one hour at room temperature.
Dose-response curves are generated and inhibitory concentration (IC50) values are calculated using non-linear regression curve fit in the Dotmatics' Studies Software (Bishops Stortford, UK).

[3] = tested on: primary human fibroblasts derived from IPF patients (LL29 cells); experiment: Inhibition of the fibrotic process: αSMA staining in TGF-β1 treated LL29 fibroblasts; format: cell-based; settings: Homo sapiens, Fibroblast, 96 h; LL29 cells, TGF-β1 20 ng/mL, 4 days, % αSMA positive cells
Procedure: Representative compounds were screened using primary human fibroblasts (derived from IPF patients) treated with TGF-β1 to determine their ability to inhibit the fibrotic process.
LL29 cells were plated at 1,500 cells/well in 70 μL/well F12 medium supplemented with 1% Fetal Bovine Serum. […] Wells treated with TGF-β1 and containing DMSO were used as positive control, and cells with only DMSO were negative control. […] Following incubation for 4 days, SYTOX green nucleic acid stain (Life Technologies [Thermo Fisher Scientific]) was added to the wells at a final concentration of 1 μM and incubated at room temperature for 30 min.

[4] = tested on: Wnt activity (Sp5-Luc reporter in SW480 cells); experiment: Screening assay for Wnt activity: Sp5-Luc reporter gene assay in SW480 colon carcinoma cells; format: cell-based, human; settings: Homo sapiens, 36 to 48 hours
Excerpt: The screening assay for Wnt activity is described as follows. Reporter cell lines can be generated by stably transducing cancer cell lines (e.g., colon cancer) or primary cells (e.g., IEC-6 intestinal cells) with a lentiviral construct that includes a Wnt-responsive promoter driving expression of the firefly luciferase gene.
SW480 colon carcinoma cells were transduced with a lentiviral vector expressing luciferase with a human Sp5 promoter consisting of a sequence of eight TCF/LEF binding sites. SW480 cells stably expressing the Sp5-Luc reporter gene and a hygromycin resistance gene were selected by treatment with 150 μg/mL of hygromycin for 7 days. These stably transduced SW480 cells were expanded in cell culture and used for all further screening activities. […] For Sp5-Luc reporter gene assays, the cells were plated at 4,000 cells/well in 384-well plates with a DMEM medium containing 1% fetal bovine serum, and 1% Penicillin-Streptomycin and incubated for 36 to 48 hours at 37° C. and 5% CO2. Following incubation, 15 μl of BriteLite Plus luminescence reagent (Perkin Elmer) was added to each well of the 384-well assay plates. The plates were placed on an orbital shaker for 2 min and then luminescence was quantified using the Envision (Perkin Elmer) plate reader. Readings were normalized to DMSO only treated cells, and normalized activities were utilized for EC50 calculations using the dose-response log (inhibitor) vs. response-variable slope (four parameters) nonlinear regression feature available in GraphPad Prism 5.0 (or Dotmatics).

[5] = molecular target: DYRK1A kinase (Homo sapiens (Human), UniProt Q13627); experiment: DYRK1A kinase assay (Ser/Thr 18 peptide Z-lyte FRET); format: biochemical; settings: read-out: EC50 (method: IC50)
Procedure: Representative compounds were screened using the assay procedure for DYRK1A kinase activity as described below.
This is a non-radioactive assay using fluorescence resonance energy transfer (FRET) between coumarin and fluorescein to detect kinase activity which is represented as a ratio of coumarin emission/fluorescein emission.
The mixture was allowed to incubate with the representative compounds for one hour at room temperature. All reactions were performed in duplicate. Unphosphorylated (“0% Control”) and phosphorylated (“100% control”) forms of Ser/Thr 18 served as control reactions. Additionally, an 11-point dose-response curve of Staurosporine (1 uM top) was run to serve as a positive compound control.
After incubation, Development Reagent A was diluted in Development Buffer then added to the reaction and allowed to further incubate for one hour at room temperature.

EC50 [1]	IC50 [2]	EC50 [4]	IC50 [5]	Structure (SMILES)	EC50 [3]
> 10000 nM	> 10000 nM	> 10000 nM	> 10000 nM	Cn1cc(-c2cc(Cl)c3[nH]nc(C(=O)NC4CCC(F)(F)CC4)c3c2)cn1 [Compound 17, 7-Chloro-N-(4,4-difluorocyclohexyl)-5-(1-methyl-1H-pyrazol-4-yl)-1H-indazole-3-carboxamide]	1200 nM
6020 nM	788 nM	> 10000 nM	618 nM	CC(C)(C)n1cc(-c2ccc3[nH]nc(C(=O)N[C@H]4CC[C@H](CN5CC(F)C5)CC4)c3c2)cn1 [Compound 25, 5-(1-(tert-Butyl)-1H-pyrazol-4-yl)-N-((1R,4R)-4-((3-fluoroazetidin-1-yl)methyl)cyclohexyl)-1H-indazole-3-carboxamide]	1890 nM
9240 nM	> 10000 nM	> 10000 nM	> 10000 nM	CN1CCC(NC(=O)c2n[nH]c3ccc(-c4cc(C(F)(F)F)nn4C)cc23)CC1 [Compound 29, 5-(1-Methyl-3-(trifluoromethyl)-1H-pyrazol-5-yl)-N-(1-methylpiperidin-4-yl)-1H-indazole-3-carboxamide]	> 10000 nM
–	29 nM	–	28 nM	Cc1ncc(-c2ccc3[nH]nc(C(=O)NC4CCN(CC(C)(C)F)CC4)c3c2)n1C [Compound 42, 5-(1,2-Dimethyl-1H-imidazol-5-yl)-N-(1-(2-fluoro-2-methylpropyl)piperidin-4-yl)-1H-indazole-3-carboxamide]	–
–	7 nM	–	7 nM	C[C@H]1C[C@H](NC(=O)c2n[nH]c3ccc(-c4cnn(C)c4)cc23)CCN1CC(C)(C)F [Compound 44, N-((2S,4R)-1-(2-fluoro-2-methylpropyl)-2-methylpiperidin-4-yl)-5-(1-methyl-1H-pyrazol-4-yl)-1H-indazole-3-carboxamide]	–
> 10000 nM	674 nM	4580 nM	190 nM	O=C(Nc1ccc(F)cc1)c1n[nH]c2ccc(-c3cnn(C4CNC4)c3)cc12 [Compound 47, 5-(1-(Azetidin-3-yl)-1H-pyrazol-4-yl)-N-(4-fluorophenyl)-1H-indazole-3-carboxamide]	5210 nM
> 10000 nM	1 nM	1840 nM	27 nM	O=C(Nc1ccc(F)cc1)c1n[nH]c2ccc(-c3nnc4n3CCNC4)cc12 [Compound 53, N-(4-Fluorophenyl)-5-(5,6,7,8-tetrahydro-[1,2,4]triazolo[4,3-a]pyrazin-3-yl)-1H-indazole-3-carboxamide]	> 10000 nM
570 nM	5380 nM	1090 nM	1050 nM	O=C(Nc1ccc(OC(F)F)cc1)c1n[nH]c2ccc(-c3cnn(C4CCNCC4F)c3)cc12 (stereo not drawn) [Compound 57, N-(4-(Difluoromethoxy)phenyl)-5-(1-(3-fluoropiperidin-4-yl)-1H-pyrazol-4-yl)-1H-indazole-3-carboxamide]	597 nM
328 nM	3020 nM	1500 nM	53 nM	CN1CCC(n2cc(-c3ccc4[nH]nc(C(=O)Nc5ccc(OC(F)F)cc5)c4c3)cn2)CC1 [Compound 58, N-(4-(Difluoromethoxy)phenyl)-5-(1-(1-methylpiperidin-4-yl)-1H-pyrazol-4-yl)-1H-indazole-3-carboxamide]	5140 nM
> 10000 nM	9370 nM	> 10000 nM	9940 nM	CC(C)(F)CN1CCC(n2cc(-c3ccc4[nH]nc(C(=O)Nc5ccc(OC(F)F)cc5)c4c3)cn2)CC1 [Compound 61, N-(4-(difluoromethoxy)phenyl)-5-(1-(1-(2-fluoro-2-methylpropyl)piperidin-4-yl)-1H-pyrazol-4-yl)-1H-indazole-3-carboxamide]	9 nM
> 10000 nM	> 10000 nM	2280 nM	3920 nM	O=C(Nc1ccc(OC(F)F)cc1)c1n[nH]c2ccc(-c3cnn(C4CCOCC4)c3)cc12 [Compound 62, N-(4-(Difluoromethoxy)phenyl)-5-(1-(tetrahydro-2H-pyran-4-yl)-1H-pyrazol-4-yl)-1H-indazole-3-carboxamide]	3100 nM
1700 nM	21 nM	937 nM	16 nM	O=C(Nc1ccc(OC(F)F)cc1)c1n[nH]c2ccc(-c3cnc4n3CCNC4)cc12 [Compound 64, N-(4-(Difluoromethoxy)phenyl)-5-(5,6,7,8-tetrahydroimidazo[1,2-a]pyrazin-3-yl)-1H-indazole-3-carboxamide]	1530 nM
1000 nM	35 nM	549 nM	9 nM	Cn1cc(-c2cc3c(C(=O)Nc4ccc(CN5CC(F)C5)cc4)n[nH]c3cc2F)cn1 [Compound 67, 6-Fluoro-N-(4-((3-fluoroazetidin-1-yl)methyl)phenyl)-5-(1-methyl-1H-pyrazol-4-yl)-1H-indazole-3-carboxamide]	150 nM
6200 nM	302 nM	1290 nM	107 nM	Cn1cc(-c2cc3c(C(=O)Nc4ccc(CN5CCC(F)(F)CC5)cc4)n[nH]c3cc2F)cn1 [Compound 76, N-(4-((4,4-Difluoropiperidin-1-yl)methyl)phenyl)-6-fluoro-5-(1-methyl-1H-pyrazol-4-yl)-1H-indazole-3-carboxamide]	174 nM
2830 nM	26 nM	411 nM	4 nM	Cn1cc(-c2cc3c(C(=O)Nc4ccc(CN5CCOCC5)cc4)n[nH]c3cc2F)cn1 [Compound 77, 6-Fluoro-5-(1-methyl-1H-pyrazol-4-yl)-N-(4-(morpholinomethyl)phenyl)-1H-indazole-3-carboxamide]	291 nM

Structure (SMILES)	EC50 [1]	IC50 [2]	EC50 [4]	IC50 [5]	EC50 [3]
O=C(Nc1ccc(F)cc1)c1n[nH]c2ccc(-c3cnc4n3CCNC4)cc12 [Compound 52, N-(4-Fluorophenyl)-5-(5,6,7,8-tetrahydroimidazo[1,2-a]pyrazin-3-yl)-1H-indazole-3-carboxamide]	–	11 nM	> 10000 nM	11 nM	–

— patent publication US10934297B2, “5-heteroaryl substituted indazole-3-carboxamides and preparation and use thereof” (Samumed, LLC, priority 2018, dated 2021)
